Reference: patent US10597388B2, “Pyridazinone herbicides” (FMC CORPORATION, priority 2014, dated 2020)

Legend:
Experiment in all cases: Test D controlled growth environment herbicide test, pre- and postemergence
Format in all cases: in vivo
[1] = system: windgrass (Apera spica-venti)
Outline: (§1)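 Pre-emergence: seeds sown in silt loam soil were sprayed with compound in a non-phytotoxic solvent mix containing surfactant. Post-emergence: plants at 2 to 18 cm (1- to 4-leaf stage) in peat moss/vermiculite medium got the same formulation. Visual 0–100 rating versus controls after 14 to 21 d.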

[2] = system: chickweed (common chickweed, Stellaria media)
Outline: as §1

[3] = system: mustard, wild (wild mustard, Sinapis arvensis)
Outline: as §1

[4] = system: barley, winter (winter barley, Hordeum vulgare)
Outline: as §1

[5] = system: wheat, winter (winter wheat, Triticum aestivum)
Outline: as §1

[6] = system: canarygrass (Phalaris minor)
Outline: as §1

[7] = system: ryegrass, Italian (Italian ryegrass, Lolium multiflorum)
Outline: as §1

[8] = system: barley, spring (spring barley, Hordeum vulgare)
Outline: as §1

[9] = system: bluegrass (annual bluegrass, Poa annua)
Outline: as §1

[10] = system: radish, wild (wild radish, Raphanus raphanistrum)
Outline: as §1

[11] = system: deadnettle (henbit deadnettle, Lamium amplexicaule)
Outline: as §1

[12] = system: field poppy (Papaver rhoeas)
Outline: as §1

[13] = system: foxtail, green (green foxtail, Setaria viridis)
Outline: as §1

[14] = Postemergence, 31 g ai/ha, scale 0 to 100 (0 no effect, 100 complete control)
[15] = Postemergence, 125 g ai/ha, visual rating on scale 0 (no effect) to 100 (complete control), 14 to 21 d
[16] = Postemergence, 250 g ai/ha, scale 0 to 100 (0 no effect, 100 complete control)
[17] = Preemergence, 62 g ai/ha, scale 0 to 100 (0 no effect, 100 complete control)
[18] = Preemergence, 125 g ai/ha, scale 0 to 100 (0 no effect, 100 complete control)
[19] = Preemergence, 250 g ai/ha, scale 0 to 100 (0 no effect, 100 complete control)
[20] = postemergence, 62 g ai/ha, scale 0 to 100, 0 no effect, 100 complete control

**Q.** Which “Windgrass plant response rating” value [1, 14] does the source give for COc1nn(C)c(=O)c(-c2c(C)ccc3ccccc23)c1O [Compound 54] here?
**A.** 35

**Q.** And the “Plant response rating, Windgrass” value [1, 15]?
**A.** 70

**Q.** And the “Plant response rating, Windgrass” value [1, 16]?
**A.** 75

**Q.** And the “Plant response rating (scale of 0 to 100), Windgrass” value ([1]; Preemergence, 31 g ai/ha)?
**A.** 0

**Q.** And the “Plant response rating, Windgrass” value [1, 17]?
**A.** 50

**Q.** What about the “Plant response rating, Windgrass” value [1, 18] of the same compound?
**A.** 70

**Q.** What about the “Plant response rating, Windgrass” value [1, 19] of the same compound?
**A.** 95

**Q.** What about the “Plant response rating, Windgrass” value [1, 20] of the same compound?
**A.** 45

**Q.** And the “Chickweed plant response rating” value [2, 14]?
**A.** 100

**Q.** What about the “Plant response rating, Chickweed” value [2, 15] of the same compound?
**A.** 100

**Q.** What about the “Plant response rating, Chickweed” value [2, 16] of the same compound?
**A.** 100

**Q.** And the “Plant response rating (scale of 0 to 100), Chickweed” value ([2]; Preemergence, 31 g ai/ha)?
**A.** 85

**Q.** What about the “Plant response rating, Chickweed” value [2, 17] of the same compound?
**A.** 90

**Q.** What about the “Plant response rating, Chickweed” value [2, 18] of the same compound?
**A.** 95

**Q.** And the “Plant response rating, Chickweed” value [2, 19]?
**A.** 100

**Q.** And the “Plant response rating, Chickweed” value [2, 20]?
**A.** 100

**Q.** And the “Mustard, Wild plant response rating” value [3, 14]?
**A.** 100

**Q.** What about the “Plant response rating, Mustard, Wild” value [3, 15] of the same compound?
**A.** 100

**Q.** And the “Plant response rating, Mustard, Wild” value [3, 16]?
**A.** 100

**Q.** What about the “Plant response rating (scale of 0 to 100), Mustard, Wild” value ([3]; Preemergence, 31 g ai/ha) of the same compound?
**A.** 50

**Q.** What about the “Plant response rating, Mustard, Wild” value [3, 17] of the same compound?
**A.** 100

**Q.** What about the “Plant response rating, Mustard, Wild” value [3, 18] of the same compound?
**A.** 100

**Q.** What about the “Plant response rating, Mustard, Wild” value [3, 19] of the same compound?
**A.** 100

**Q.** And the “Plant response rating, Mustard, Wild” value [3, 20]?
**A.** 100

**Q.** And the “Barley, Winter plant response rating” value [4, 14]?
**A.** 0

**Q.** And the “Plant response rating, Barley, Winter” value [4, 15]?
**A.** 5

**Q.** And the “Plant response rating, Barley, Winter” value [4, 16]?
**A.** 30

**Q.** And the “Plant response rating (scale of 0 to 100), Barley, Winter” value ([4]; Preemergence, 31 g ai/ha)?
**A.** 0

**Q.** And the “Plant response rating, Barley, Winter” value [4, 17]?
**A.** 0

**Q.** And the “Plant response rating, Barley, Winter” value [4, 18]?
**A.** 0

**Q.** And the “Plant response rating, Barley, Winter” value [4, 19]?
**A.** 0

**Q.** What about the “Plant response rating, Barley, Winter” value [4, 20] of the same compound?
**A.** 0

**Q.** And the “Wheat, Winter plant response rating” value [5, 14]?
**A.** 0

**Q.** And the “Plant response rating, Wheat, Winter” value [5, 15]?
**A.** 25

**Q.** And the “Plant response rating, Wheat, Winter” value [5, 16]?
**A.** 30

**Q.** What about the “Plant response rating (scale of 0 to 100), Wheat, Winter” value ([5]; Preemergence, 31 g ai/ha) of the same compound?
**A.** 0

**Q.** What about the “Plant response rating, Wheat, Winter” value [5, 17] of the same compound?
**A.** 0

**Q.** And the “Plant response rating, Wheat, Winter” value [5, 18]?
**A.** 15

**Q.** And the “Plant response rating, Wheat, Winter” value [5, 19]?
**A.** 35

**Q.** And the “Plant response rating, Wheat, Winter” value [5, 20]?
**A.** 5

**Q.** And the “Canarygrass plant response rating” value [6, 14]?
**A.** 35

**Q.** What about the “Plant response rating, Canarygrass” value [6, 15] of the same compound?
**A.** 65

**Q.** What about the “Plant response rating, Canarygrass” value [6, 16] of the same compound?
**A.** 75

**Q.** What about the “Plant response rating (scale of 0 to 100), Canarygrass” value ([6]; Preemergence, 31 g ai/ha) of the same compound?
**A.** 15

**Q.** And the “Plant response rating, Canarygrass” value [6, 17]?
**A.** 55

**Q.** What about the “Plant response rating, Canarygrass” value [6, 18] of the same compound?
**A.** 80

**Q.** What about the “Plant response rating, Canarygrass” value [6, 19] of the same compound?
**A.** 90

**Q.** What about the “Plant response rating, Canarygrass” value [6, 20] of the same compound?
**A.** 55

**Q.** What about the “Ryegrass, Italian plant response rating” value [7, 14] of the same compound?
**A.** 80

**Q.** What about the “Plant response rating, Ryegrass, Italian” value [7, 15] of the same compound?
**A.** 90

**Q.** And the “Plant response rating, Ryegrass, Italian” value [7, 16]?
**A.** 95

**Q.** And the “Plant response rating (scale of 0 to 100), Ryegrass, Italian” value ([7]; Preemergence, 31 g ai/ha)?
**A.** 35

**Q.** And the “Plant response rating, Ryegrass, Italian” value [7, 17]?
**A.** 90

**Q.** And the “Plant response rating, Ryegrass, Italian” value [7, 18]?
**A.** 100

**Q.** And the “Plant response rating, Ryegrass, Italian” value [7, 19]?
**A.** 100

**Q.** What about the “Plant response rating, Ryegrass, Italian” value [7, 20] of the same compound?
**A.** 85

**Q.** And the “Barley, Spring plant response rating” value [8, 14]?
**A.** 0

**Q.** What about the “Plant response rating, Barley, Spring” value [8, 15] of the same compound?
**A.** 0

**Q.** And the “Plant response rating, Barley, Spring” value [8, 16]?
**A.** 10

**Q.** And the “Plant response rating (scale of 0 to 100), Barley, Spring” value ([8]; Preemergence, 31 g ai/ha)?
**A.** 0

**Q.** What about the “Plant response rating, Barley, Spring” value [8, 17] of the same compound?
**A.** 0

**Q.** And the “Plant response rating, Barley, Spring” value [8, 18]?
**A.** 0

**Q.** And the “Plant response rating, Barley, Spring” value [8, 19]?
**A.** 5

**Q.** What about the “Plant response rating, Barley, Spring” value [8, 20] of the same compound?
**A.** 0

**Q.** And the “Bluegrass plant response rating” value [9, 14]?
**A.** 10

**Q.** And the “Plant response rating, Bluegrass” value [9, 15]?
**A.** 25

**Q.** And the “Plant response rating, Bluegrass” value [9, 16]?
**A.** 35

**Q.** What about the “Plant response rating (scale of 0 to 100), Bluegrass” value ([9]; Preemergence, 31 g ai/ha) of the same compound?
**A.** 0

**Q.** What about the “Plant response rating, Bluegrass” value [9, 17] of the same compound?
**A.** 10

**Q.** What about the “Plant response rating, Bluegrass” value [9, 18] of the same compound?
**A.** 15

**Q.** What about the “Plant response rating, Bluegrass” value [9, 19] of the same compound?
**A.** 25

**Q.** What about the “Plant response rating, Bluegrass” value [9, 20] of the same compound?
**A.** 15

**Q.** What about the “Radish, Wild plant response rating” value [10, 14] of the same compound?
**A.** 80

**Q.** And the “Plant response rating, Radish, Wild” value [10, 15]?
**A.** 100

**Q.** And the “Plant response rating, Radish, Wild” value [10, 16]?
**A.** 100

**Q.** What about the “Plant response rating (scale of 0 to 100), Radish, Wild” value ([10]; Preemergence, 31 g ai/ha) of the same compound?
**A.** 25

**Q.** And the “Plant response rating, Radish, Wild” value [10, 17]?
**A.** 100

**Q.** And the “Plant response rating, Radish, Wild” value [10, 18]?
**A.** 100

**Q.** And the “Plant response rating, Radish, Wild” value [10, 19]?
**A.** 100

**Q.** And the “Plant response rating, Radish, Wild” value [10, 20]?
**A.** 100

**Q.** And the “Deadnettle plant response rating” value [11, 14]?
**A.** 100

**Q.** What about the “Plant response rating, Deadnettle” value [11, 15] of the same compound?
**A.** 100

**Q.** What about the “Plant response rating, Deadnettle” value [11, 16] of the same compound?
**A.** 100

**Q.** What about the “Plant response rating (scale of 0 to 100), Deadnettle” value ([11]; Preemergence, 31 g ai/ha) of the same compound?
**A.** 0

**Q.** What about the “Plant response rating, Deadnettle” value [11, 17] of the same compound?
**A.** 60

**Q.** And the “Plant response rating, Deadnettle” value [11, 18]?
**A.** 70

**Q.** And the “Plant response rating, Deadnettle” value [11, 19]?
**A.** 95

**Q.** And the “Plant response rating, Deadnettle” value [11, 20]?
**A.** 100

**Q.** What about the “Field Poppy plant response rating” value [12, 14] of the same compound?
**A.** 70

**Q.** And the “Plant response rating, Field Poppy” value [12, 15]?
**A.** 100

**Q.** What about the “Plant response rating, Field Poppy” value [12, 16] of the same compound?
**A.** 100

**Q.** And the “Plant response rating (scale of 0 to 100), Field Poppy” value ([12]; Preemergence, 31 g ai/ha)?
**A.** 90

**Q.** What about the “Plant response rating, Field Poppy” value [12, 17] of the same compound?
**A.** 55

**Q.** What about the “Plant response rating, Field Poppy” value [12, 18] of the same compound?
**A.** 100

**Q.** And the “Plant response rating, Field Poppy” value [12, 19]?
**A.** 100

**Q.** What about the “Plant response rating, Field Poppy” value [12, 20] of the same compound?
**A.** 100

**Q.** And the “Foxtail, Green plant response rating” value [13, 14]?
**A.** 55

**Q.** And the “Plant response rating, Foxtail, Green” value [13, 15]?
**A.** 70

**Q.** What about the “Plant response rating, Foxtail, Green” value [13, 16] of the same compound?
**A.** 80

**Q.** What about the “Plant response rating (scale of 0 to 100), Foxtail, Green” value ([13]; Preemergence, 31 g ai/ha) of the same compound?
**A.** 50

**Q.** What about the “Plant response rating, Foxtail, Green” value [13, 17] of the same compound?
**A.** 60

**Q.** What about the “Plant response rating, Foxtail, Green” value [13, 18] of the same compound?
**A.** 65

**Q.** What about the “Plant response rating, Foxtail, Green” value [13, 19] of the same compound?
**A.** 100

**Q.** What about the “Plant response rating, Foxtail, Green” value [13, 20] of the same compound?
**A.** 65
